Measurements from ChEMBL document CHEMBL4346765, “Design, synthesis and biological evaluation of novel dithiocarbamate-substituted diphenylaminopyrimidine derivatives as BTK inhibitors” (Bioorg Med Chem, 2019).
Calls of active or inactive are those of the source. No cut-off for these calls is given here.

How the values were obtained:
BJ = test: Cytotoxicity against human BJ cells assessed as reduction in cell viability at 0.1 to 40 uM incubated for 48 hrs by MTS assay; type: cell-based
[1] = biological target: T1, Tyrosine-protein kinase BTK (Homo sapiens, UniProt Q06187); test: Inhibition of human recombinant full length BTK expressed in baculovirus in Sf9 insect cells using Poly (4:1 Glu, Tyr) as substrate incubated for 1 hr by ADP-Glo assay
[2] = biological target: T1, Tyrosine-protein kinase BTK; test: Inhibition of BTK in anti-IgM-stimulated human Ramos cells assessed as reduction in Akt phosphorylation at 0.01 to 10 uM incubated for 4 hrs followed by anti-IgM stimulation for 30 mins by Western blot analysis; type: cell-based
K562 = test: Cytotoxicity against human K562 cells assessed as reduction in cell viability at 0.1 to 40 uM incubated for 48 hrs by MTS assay; type: functional, cell-based; conditions: K562, 48 h
NCI-H1299 = test: Cytotoxicity against human H1299 cells assessed as reduction in cell viability at 0.1 to 40 uM incubated for 48 hrs by MTS assay; type: functional, cell-based; conditions: NCI-H1299, 48 h
Ramos [3] = test: Induction of apoptosis in human Ramos cells assessed as increase in cleaved PARP1 protein expression at 0.01 to 10 uM incubated for 8 hrs by Western blotting analysis; type: functional, cell-based
Raji [4] = test: Potency index,ratio of Spebrutinib IC50 to compound IC50 for antiproliferative activity against human Raji cells assessed as reduction in cell growth incubated for 48 hrs by MTS assay; type: functional
PC-3 = test: Cytotoxicity against human PC3 cells assessed as reduction in cell viability at 0.1 to 40 uM incubated for 48 hrs by MTS assay; type: functional, cell-based; conditions: PC-3, 48 h
MCF-10A = test: Cytotoxicity against human MCF10A cells assessed as reduction in cell viability at 0.1 to 40 uM incubated for 48 hrs by MTS assay; type: cell-based
HepG2 = test: Cytotoxicity against human HepG2 cells assessed as reduction in cell viability at 0.1 to 40 uM incubated for 48 hrs by MTS assay; type: functional, cell-based; conditions: HepG2, 48 h
[5] = biological target: T1, Tyrosine-protein kinase BTK; test: Inhibition of BTK in anti-IgM-stimulated human Ramos cells assessed as reduction in Erk phosphorylation at 0.01 to 10 uM incubated for 4 hrs followed by anti-IgM stimulation for 30 mins by Western blot analysis; type: cell-based
[6] = Toxicity in NOD/SCID mouse xenografted with human Ramos cells assessed as induction of morphological lesions in lung at 60 mg/kg/day, ip administered daily for 14 days by H and E staining based histologic analysis; type: organism-based; conditions: in vivo, 336 h
[7] = Cytotoxicity against human HELF cells assessed as reduction in cell viability at 0.1 to 40 uM incubated for 48 hrs by MTS assay; type: cell-based
786-0 = test: Cytotoxicity against human 786-O cells assessed as reduction in cell viability at 0.1 to 40 uM incubated for 48 hrs by MTS assay; type: functional, cell-based; conditions: 786-0, 48 h
[8] = Toxicity in NOD/SCID mouse xenografted with human Ramos cells assessed as induction of morphological lesions in kidney at 60 mg/kg/day, ip administered daily for 14 days by H and E staining based histologic analysis; type: organism-based; conditions: in vivo, 336 h
MCF7 = test: Cytotoxicity against human MCF7 cells assessed as reduction in cell viability at 0.1 to 40 uM incubated for 48 hrs by MTS assay; type: functional, cell-based; conditions: MCF7, 48 h
[9] = biological target: T1, Tyrosine-protein kinase BTK; test: Inhibition of BTK in anti-IgM-stimulated human Ramos cells assessed as reduction in autophosphorylation at Y223 residues at 0.01 to 10 uM incubated for 4 hrs followed by anti-IgM stimulation for 30 mins by Western blot analysis; type: cell-based
NCI-H3122 = test: Cytotoxicity against human NCI-H3122 cells assessed as reduction in cell viability at 0.1 to 40 uM incubated for 48 hrs by MTS assay; type: functional, cell-based; conditions: NCI-H3122, 48 h
[10] = Toxicity in NOD/SCID mouse xenografted with human Ramos cells assessed as induction of morphological lesions in spleen at 60 mg/kg/day, ip administered daily for 14 days by H and E staining based histologic analysis; type: organism-based; conditions: in vivo, 336 h
KARPAS-299 = test: Cytotoxicity against human KARPAS299 cells assessed as reduction in cell viability at 0.1 to 40 uM incubated for 48 hrs by MTS assay; type: functional, cell-based; conditions: KARPAS-299, 48 h
HEF = test: Cytotoxicity against human HEF cells assessed as reduction in cell viability at 0.1 to 40 uM incubated for 48 hrs by MTS assay; type: cell-based
Jurkat = test: Cytotoxicity against human Jurkat cells assessed as reduction in cell viability at 0.1 to 40 uM incubated for 48 hrs by MTS assay; type: functional, cell-based
HT-29 = test: Cytotoxicity against human HT-29 cells assessed as reduction in cell viability at 0.1 to 40 uM incubated for 48 hrs by MTS assay; type: functional, cell-based; conditions: HT-29, 48 h
HeLa = test: Cytotoxicity against human HeLa cells assessed as reduction in cell viability at 0.1 to 40 uM incubated for 48 hrs by MTS assay; type: functional, cell-based
Ramos [11] = test: Potency index,ratio of Spebrutinib IC50 to compound IC50 for antiproliferative activity against human Ramos cells assessed as reduction in cell growth incubated for 48 hrs by MTS assay; type: functional
[12] = biological target: T1, Tyrosine-protein kinase BTK; test: Inhibition of BTK in anti-IgM-stimulated human Ramos cells assessed as reduction in PLCgamma2 phosphorylation at Y1217 residues at 0.01 to 10 uM incubated for 4 hrs followed by anti-IgM stimulation for 30 mins by Western blot analysis; type: cell-based
MDA-MB-231 = test: Cytotoxicity against human MDA-MB-231 cells assessed as reduction in cell viability at 0.1 to 40 uM incubated for 48 hrs by MTS assay; type: functional, cell-based; conditions: MDA-MB-231, 48 h
[13] = Toxicity in NOD/SCID mouse xenografted with human Ramos cells assessed as changes in body weight at 30 to 60 mg/kg/day, ip administered daily for 14 days; type: organism-based; conditions: in vivo, 336 h
A549 = test: Cytotoxicity against human A549 cells assessed as reduction in cell viability at 0.1 to 40 uM incubated for 48 hrs by MTS assay; type: functional, cell-based; conditions: A549, 48 h
Ramos [14] = test: Potency index,ratio of Ibrutinib IC50 to compound IC50 for antiproliferative activity against human Ramos cells assessed as reduction in cell growth incubated for 48 hrs by MTS assay; type: functional
Ramos [15] = test: Antitumor activity in human Ramos cells xenografted in NOD/SCID mouse assessed as reduction in tumor growth at 60 mg/kg/day, ip administered daily for 14 days; type: functional; conditions: 336 h, read-out: TGI
Ramos [16] = test: Antitumor activity in human Ramos cells xenografted in NOD/SCID mouse assessed as reduction in tumor growth at 30 mg/kg/day, ip administered daily for 14 days; type: functional; conditions: 336 h, read-out: TGI
Raji [17] = test: Antiproliferative activity against human Raji cells assessed as reduction in cell growth incubated for 48 hrs by MTS assay
Ramos [18] = test: Antiproliferative activity against human Ramos cells assessed as reduction in cell growth incubated for 48 hrs by MTS assay
[19] = Toxicity in NOD/SCID mouse xenografted with human Ramos cells assessed as induction of morphological lesions in heart at 60 mg/kg/day, ip administered daily for 14 days by H and E staining based histologic analysis; type: organism-based; conditions: in vivo, 336 h
[20] = Toxicity in NOD/SCID mouse xenografted with human Ramos cells assessed as induction of morphological lesions in liver at 60 mg/kg/day, ip administered daily for 14 days by H and E staining based histologic analysis; type: organism-based; conditions: in vivo, 336 h
Raji [21] = test: Potency index,ratio of Ibrutinib IC50 to compound IC50 for antiproliferative activity against human Raji cells assessed as reduction in cell growth incubated for 48 hrs by MTS assay; type: functional

T1 sequence (Q06187 whole entry): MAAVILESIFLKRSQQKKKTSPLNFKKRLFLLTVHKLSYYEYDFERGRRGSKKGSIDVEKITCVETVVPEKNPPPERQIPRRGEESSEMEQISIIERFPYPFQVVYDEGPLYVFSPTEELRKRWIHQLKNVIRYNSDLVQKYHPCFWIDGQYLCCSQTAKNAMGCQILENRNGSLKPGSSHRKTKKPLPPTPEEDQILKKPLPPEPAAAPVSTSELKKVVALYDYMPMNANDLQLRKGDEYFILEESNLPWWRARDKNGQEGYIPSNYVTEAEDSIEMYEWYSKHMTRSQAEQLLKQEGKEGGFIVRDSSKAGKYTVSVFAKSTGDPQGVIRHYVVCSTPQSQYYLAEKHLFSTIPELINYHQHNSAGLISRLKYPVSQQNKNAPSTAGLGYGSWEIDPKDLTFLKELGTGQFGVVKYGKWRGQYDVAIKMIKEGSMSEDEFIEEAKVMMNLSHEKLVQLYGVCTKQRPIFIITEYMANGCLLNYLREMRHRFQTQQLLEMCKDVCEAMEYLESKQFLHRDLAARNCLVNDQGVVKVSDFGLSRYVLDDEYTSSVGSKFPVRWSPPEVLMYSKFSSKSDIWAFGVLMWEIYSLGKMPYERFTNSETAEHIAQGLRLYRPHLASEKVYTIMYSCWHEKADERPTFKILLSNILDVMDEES

C=CC(=O)Nc1cccc(Nc2nc(Nc3ccc(OCCSC(=S)NCc4cccnc4)cc3)ncc2F)c1
IC50 (BJ): 12.8 µM
IC50 [1]: 0.00115 µM
inhibition [2]: Active
IC50 (K562): 3.27 µM
IC50 (NCI-H1299): 17.9 µM
Activity (Ramos [3]): Active
Ratio IC50 (Raji [4]): 10
IC50 (PC-3): 8.25 µM
IC50 (MCF-10A): 8.62 µM
IC50 (HepG2): 16.2 µM
inhibition [5]: inactive
Activity [6]: Non-Toxic
IC50 [7]: 19.3 µM
IC50 (786-0): 4.96 µM
Activity [8]: Non-Toxic
IC50 (MCF7): 17.4 µM
inhibition [9]: Active
IC50 (NCI-H3122): 33.4 µM
Activity [10]: Non-Toxic
IC50 (KARPAS-299): > 40 µM
IC50 (HEF): 28.4 µM
IC50 (Jurkat): 2.49 µM
IC50 (HT-29): 10.2 µM
IC50 (HeLa): 8.74 µM
Ratio IC50 (Ramos [11]): 10
inhibition [12]: Dose-dependent effect
IC50 (MDA-MB-231): 35.4 µM
Activity [13]: Non-Toxic
IC50 (A549): 3.2 µM
Ratio IC50 (Ramos [14]): 10
inhibition in vivo at 60 mg/kg/day (Ramos [15]): 57.8%
inhibition in vivo at 30 mg/kg/day (Ramos [16]): 21.5%
IC50 (Raji [17]): 0.706 µM
IC50 (Ramos [18]): 0.357 µM
Activity [19]: Non-Toxic
Activity [20]: Non-Toxic
Ratio IC50 (Raji [21]): 10
